Experimental data as given in patent US20250177502A1, “THROMBIN AND FIBRINOGEN AS TARGETS FOR ATOPIC DERMATITIS DIAGNOSIS AND TREATMENT” (Children's Hospital Medical Center, priority 2022, published 2025).

Tests used:
[1] = Absorption of topically applied bivalirudin: prothrombin time on homogenized ex vivo mouse skin samples; type: in vitro ADME; conditions: reconstituted bivalirudin 50 mg/mL applied to ex vivo mouse skin for 0, 5 or 15 minutes, then washed
Procedure: Reconstituted bivalirudin was applied to ex vivo mouse skin samples for 0, 5, or 15 minutes then repeatedly washed, the samples were homogenized, and finally a prothrombin time was run on the homogenized skin samples. […] FIG. 10 illustrates absorption of topically applied bivalirudin by measuring prothrombin time.

[2] = Bivalirudin solubility and precipitation in aqueous solutions; type: physicochemical
Procedure: Direct thrombin inhibitor bivalirudin was formulated in a lyophilized formulation containing 50 mg/mL of bivalirudin, 25 mg/mL of mannitol, and NaOH for pH adjustment to 5-6. […] The lyophilized bivalirudin was reconstituted with 5 mL water to a concentration of 50 mg/mL.

For `CC[C@H](C)[C@H](NC(=O)[C@H](CCC(=O)O)NC(=O)[C@H](CCC(=O)O)NC(=O)[C@H](Cc1ccccc1)NC(=O)[C@H](CC(=O)O)NC(=O)CNC(=O)[C@H](CC(N)=O)NC(=O)CNC(=O)CNC(=O)CNC(=O)CNC(=O)[C@@H]1CCCN1C(=O)[C@H](CCCNC(=N)N)NC(=O)[C@@H]1CCCN1C(=O)[C@H](N)Cc1ccccc1)C(=O)N1CCC[C@H]1C(=O)N[C@@H](CCC(=O)O)C(=O)N[C@@H](CCC(=O)O)C(=O)N[C@@H](Cc1ccc(O)cc1)C(=O)N[C@@H](CC(C)C)C(=O)O` [bivalirudin], the “absorption by skin and retained function (prothrombin time of homogenized skin)” value [1] was “is absorbed and retains function”, the “solubility: influence of pH” value [2] was “influenced by pH” and the “solubility: influence of temperature and addition of mannitol” value [2] was “not affected”.
